Source: patent US9198420B2, “Rodenticidal norbormide analogues” (priority 2012, dated 2015)
Read-outs that look alike come from different tables or passages of the source. Marks after values point to notes of the source that are not given here.

Assays:
rat caudal artery = assay: Rat caudal artery ring contractile force (vasoconstrictory activity); set-up: species or system rat (male Wistar); conditions: for Emax: Table 1, read-out: Vasoconstriction: maximum contractile effect as a % of 90 mM KCl contraction
Procedure, shortened: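 Endothelium-denuded caudal artery rings from male Wistar rats were held at 2 g resting tension in Tyrode solution (37° C, pH 7.35, 95% O2/CO2) and isometric force was recorded. Compounds were tested at 50 μM, with contraction expressed as percent of the 90 mM KCl response.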

[1] = Simulated gastric fluid (SGF) hydrolytic stability assay; format: physicochemical; conditions: simulated gastric fluid without pepsin, pH 1.2, 37° C., 1 h, n = 3; for % NRB released, Hydrolytic Stability (simulated gastric fluid): footnote c: compounds not exhibiting vasoconstriction
Procedure: All in vivo candidates were subjected to a 1 h hydrolytic stability appraisal in the presence of SGF, without pepsin (United States Pharmacopoeia 24) [200 μL total volume, sodium chloride solution (0.03 M) acidified to pH 1.2 with concentrated hydrochloric acid, at a final compound concentration of 200 μM, 2.5% DMSO overall, 37° C., n=3], to investigate any potential chemical instabilities that may occur in the acidic environment of the stomach prior to uptake. Analysis was by RP-LCMS at an injection volume of 5 μL.

[2] = Rat serum assay (release of NRB or NRB analogue); format: in vitro ADME; conditions: 80% rat serum, 37° C., 3 h, n = 3
Procedure: The hydrolytic stability of compounds of the invention in rat blood was evaluated using in vitro rat serum obtained from Sigma-Aldrich and stored at −78° C. Similar assay conditions to those reported by Li Di and co-workers (Int. J. Pharm. 2005, 297, 110-119) were followed [200 μL total volume, 80% rat serum (diluting with phosphate buffer (0.1 M, pH 7.4)), at a final compound concentration of 200 μM, 2.5% DMSO overall, 37° C., 3 h, n=3] using an Eppendorf Thermomixer Compact. Reactions were quenched by transferring 150 μL of the incubation mixture to 450 μL of ice-cold acetonitrile, affording a final compound/NRB or NRB analogue concentration of 50 μM. Samples were centrifuged at 14,500×g for 15 min using an Eppendorf Mini Spin Plus centrifuge, at ambient temperature. 400 μL of the supernatant was removed and transferred to clean tubes. Analysis was by RP-LCMS at an injection volume of 20 μL. Each compound and corresponding NRB or NRB analogue were subjected to external calibration curves at 50 μM, 100 μM and 200 μM to allow conversion of absorbance unit area into nmol, from which the percentage of NRB or NRB analogue released from each compound was calculated.

[3] = Rat liver S9 fraction assay (release of NRB or NRB analogue); format: in vitro ADME, rat (male Sprague-Dawley); conditions: 1 mg/mL rat liver S9 fraction, 37° C., 6 h, n = 3
Procedure: The hydrolytic stability of compounds of the invention was also evaluated in vitro using rat liver S9 fraction (20 mg/mL), pooled from male rat (Sprague-Dawley), obtained from Sigma-Aldrich, diluted to 1 mg/mL with phosphate buffer (0.1 M, pH 7.4) and stored at −78° C. Similar assay conditions to those reported by Li Di and co-workers (Int. J. Pharm. 2005, 297, 110-119) were followed [200 μL total volume, 1 mg/mL rat liver S9 fraction (diluting with phosphate buffer (0.1 M, pH 7.4)), at a final compound concentration of 200 μM, 2.5% DMSO overall, 37° C., 6 h, n=3]. The assay protocol followed is as that described above for the rat serum assay, with an adjusted end-point of 6 h.

Sprague Dawley rats [4] = assay: In vivo lethality, intravenous injection via the tail; set-up: species or system rat (Sprague Dawley); conditions: rat
Procedure: Sprague Dawley rats (150-200 g) were used to appraise the rodenticidal activity of the compounds put forward for in vivo evaluation. Briefly, prior to administration the compounds were dissolved in 0.2 M hydrochloric acid (5% DMSO overall), to the desired dose, and without delay either injected intravenously, via the tail, or orally gavaged. All treated animals were housed in a quiet room and monitored every minute (i.v) or every 15 min (oral) to verify early signs of toxicity.

Sprague Dawley rats [5] = assay: In vivo lethality, oral gavage; set-up: species or system rat (Sprague Dawley); conditions: rat; for Time to Death (min) / Onset of Symptoms: mean time; for Onset of Symptoms: visual signs of distress consistent with NRB-like symptoms; for In vivo lethality (oral): n = 2
Procedure, shortened: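 Sprague Dawley rats (150-200 g) received compound dissolved in 0.2 M HCl (5% DMSO overall) at the desired dose, by oral gavage or tail-vein i.v. injection. Animals were watched for early toxicity signs every minute (i.v.) or every 15 min (oral).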

Sprague Dawley rats [6] = assay: Palatability (no-choice) trial, peanut butter bait; format: in vivo, rat (Sprague Dawley); conditions: 1% w/w toxicant in peanut butter bait; for mortality at 1 %: po
Text: In the palatability trials, Sprague Dawley rats (ca. 250 g) were presented with 1% w/w compound (n=6) or 0.5% w/w compound (n=5) in a peanut butter bait, following 3 days ‘pre-baiting’ with a peanut butter formulation free of toxicant.

Sprague Dawley rats [7] = assay: Palatability (choice) trial, peanut butter bait; format: in vivo, rat (Sprague Dawley); conditions: 2 days
[8] = choice of EPA diet (20 g) and bait with 1% w/w toxicant (20 g), n = 12, Table 14
[9] = choice of standard lab pellets (20 g) and bait with 1% w/w toxicant (20 g), n = 12, Table 13
[10] = Table 5, compounds of formula (III)
[11] = choice of EPA diet (20 g) and bait with 1% w/w toxicant (20 g), n = 2, Table 15

Compound	Vasoconstriction: maximum contractile effect as a % of 90 mM KCl contraction (rat caudal artery; Table 1, compound at 50 μM)	Vasoconstriction: maximum contractile effect as a % of 90 mM KCl contraction (rat caudal artery; Table 4, pre-cleavage, n = 3)	% NRB released, Hydrolytic Stability (simulated gastric fluid) [1]	% NRB released, Rat Serum [2]	% NRB released, Rat Liver S9 [3]	In vivo lethality (i.v.) (Sprague Dawley rats [4]; 20 mg/Kg, n = 2)	Time to Death (min) (Sprague Dawley rats [5]; 20 mg/Kg)	Onset of Symptoms (Sprague Dawley rats [5]; 20 mg/Kg)	In vivo lethality (oral) (Sprague Dawley rats [5]; 20 mg/Kg)	In vivo lethality (oral) (Sprague Dawley rats [5]; 40 mg/Kg)	Emax (rat caudal artery)	Vasoconstriction: maximum contractile effect as a % of 90 mM KCl contraction (rat caudal artery; [10])	Vasoconstriction: maximum contractile effect as a % of 90 mM KCl contraction (rat caudal artery; n = 3, pre-cleavage, Table 6)	% NRB released, Hydrolytic Stability [1]	other results
5-(α-Hydroxy-α-2-pyridylbenzyl)-N-2′-phenylpropioyloxyethyl-7-(α-2-pyridylbenzylidene)-5-norbornene-2,3-dicarboximide [Compound 123]	0%	0%	0^c %	84.5 ± 2.0%	55.6 ± 4.1%	yes^f	35^d min	15 min	yes^h,i	yes^h,i					
O=C(C=Cc1ccccc1)OCN1C(=O)C2C3C=C(C(O)(c4ccccc4)c4ccccn4)C(C3=C(c3ccccc3)c3ccccn3)C2C1=O (stereo not drawn) [Compound 19, N-Cinnamoyloxymethyl-5-(α-hydroxy-α-2-pyridylbenzyl)-7-(α-2-pyridylbenzylidene)-5-norbornene-2,3-dicarboximide]		0%				yes^f	90^d min	20 min	yes^h,i	yes^h,i	0%				No of deaths (Sprague Dawley rats [6]; n = 6, male rats only, Table 10): 5/5^b; No of deaths (Sprague Dawley rats [7]; [8]): 1/12; No of deaths (Sprague Dawley rats [7]; [9]): 2/12
O=C(OCN1C(=O)C2C3C=C(C(O)(c4ccccc4)c4ccccn4)C(C3=C(c3ccccc3)c3ccccn3)C2C1=O)c1ccc2ccccc2c1 (stereo not drawn) [Compound 20, 5-(α-Hydroxy-α-2-pyridylbenzyl)-2′-naphthoyloxymethyl-7-(α-2-pyridylbenzylidene)-5-norbornene-2,3-dicarboximide]	0%	0%	0^c %	31.3 ± 2.7%	20.2 ± 0.8%	yes^f				no^h					
O=C(CCCCCCCCC(=O)OCN1C(=O)C2C3C=C(C(O)(c4ccccc4)c4ccccn4)C(C3=C(c3ccccc3)c3ccccn3)C2C1=O)OCN1C(=O)C2C3C=C(C(O)(c4ccccc4)c4ccccn4)C(C3=C(c3ccccc3)c3ccccn3)C2C1=O (stereo not drawn) [Compound 24, 5-(α-Hydroxy-α-2-pyridylbenzyl)-7-(α-2-pyridylbenzylidene)-N-sebacoyloxymethyl-5-norbornene-2,3-dicarboximide dimer]				8.6 ± 0.5%	6.2 ± 0.2%							0%	0%	0%	In vivo lethality (i.v.) (Sprague Dawley rats [4]; 20 mg/Kg, n = 2, Table 6): no^e
CC(=Cc1ccccc1)C(=O)OCCN1C(=O)C2C3C=C(C(O)(c4ccccc4)c4ccccn4)C(C3=C(c3ccccc3)c3ccccn3)C2C1=O (stereo not drawn) [Compound 121, 5-(α-Hydroxy-α-2-pyridylbenzyl)-N-2′-α-methylcinnamoyloxyethyl-7-(α-2-pyridylbenzylidene)-5-norbornene-2,3-dicarboximide]	0%	0%	0^c %	19.1 ± 1.3%			not lethal	20 min							No of deaths (Sprague Dawley rats [6]; n = 6, 3 male and 3 female rats, Table 11): 6/6; No of deaths (Sprague Dawley rats [7]; [11]): 3/12
COc1ccc(C=CC(=O)OCCN2C(=O)C3C4C=C(C(O)(c5ccccc5)c5ccccn5)C(C4=C(c4ccccc4)c4ccccn4)C3C2=O)cc1 (stereo not drawn) [Compound 126, 5-(α-Hydroxy-α-2-pyridylbenzyl)-N-[2′-(4″-methoxycinnamoyloxy)ethyl]-7-(α-2-pyridylbenzylidene)-5-norbornene-2,3-dicarboximide]		0%				yes^f	50^d min	25 min	yes^h,i	yes^h,i	0%				mortality at 1 % (Sprague Dawley rats [6]; n = 6, male rats only, Table 10, read-out: No of deaths (converted)): 83.3%; No of deaths (Sprague Dawley rats [7]; [8]): 8/11^b; No of deaths (Sprague Dawley rats [7]; [9]): 10/12
O=C(CCCCCCCCC(=O)OCCN1C(=O)C2C3C=C(C(O)(c4ccccc4)c4ccccn4)C(C3=C(c3ccccc3)c3ccccn3)C2C1=O)OCCN1C(=O)C2C3C=C(C(O)(c4ccccc4)c4ccccn4)C(C3=C(c3ccccc3)c3ccccn3)C2C1=O (stereo not drawn) [Compound 141, 5-(α-Hydroxy-α-2-pyridylbenzyl)-7-(α-2-pyridylbenzylidene)-N-2′-sebacoyloxyethyl-5-norbornene-2,3-dicarboximide dimer]				<5%	<5%							0%	0%	0%	In vivo lethality (i.v.) (Sprague Dawley rats [4]; 10 mg/Kg, n = 2, Table 6): no^f
O=C(CCC(=O)OCCN1C(=O)C2C3C=C(C(O)(c4ccccc4)c4ccccn4)C(C3=C(c3ccccc3)c3ccccn3)C2C1=O)OCCOC(=O)CCC(=O)OCCN1C(=O)C2C3C=C(C(O)(c4ccccc4)c4ccccn4)C(C3=C(c3ccccc3)c3ccccn3)C2C1=O (stereo not drawn) [Compound 144, N-[2′-Ethylenebis(hydrogensuccinoyloxy)ethyl]-5-(α-hydroxy-α-2-pyridylbenzyl)-7-(α-2-pyridylbenzylidene)-5-norbornene-2,3-dicarboximide dimer]				14.5 ± 0.8%	<5%							0%	0%	0%	In vivo lethality (i.v.) (Sprague Dawley rats [4]; 10 mg/Kg, n = 2, Table 6): no^f
CCc1ccc(C=CC(=O)OCCN2C(=O)C3C4C=C(C(O)(c5ccccc5)c5ccccn5)C(C4=C(c4ccccc4)c4ccccn4)C3C2=O)cc1 (stereo not drawn) [Compound 335, N-[2′-(4″-Ethylcinnamoyloxy)ethyl]-5-(α-hydroxy-α-2-pyridylbenzyl)-7-(α-2-pyridylbenzylidene)-5-norbornene-2,3-dicarboximide]		19%					90^e min	15 min		yes^h	19%				mortality at 1 % (Sprague Dawley rats [6]; n = 6, 3 male and 3 female rats, Table 11, read-out: No of deaths (converted)): 100%; No of deaths (Sprague Dawley rats [7]; [11]): 7/12
